Assay results as given in ChEMBL document CHEMBL5143564, “PES derivative PESA is a potent tool to globally profile cellular targets of PES” (Bioorg Med Chem Lett, 2022).
Calls of active or inactive are those of the source. No cut-off for these calls is given here.

Experiments:
[1] = biological target: T1, Peroxiredoxin-6 (Homo sapiens) (UniProt P30041); test: Binding affinity to PRDX6 in human MDA-MB-453 cells measured after 6 hrs by pull-down assay; type: cell-based; conditions: dose <= 20.0 µM, DDE = dose-dependent effect
T1 sequence (whole entry): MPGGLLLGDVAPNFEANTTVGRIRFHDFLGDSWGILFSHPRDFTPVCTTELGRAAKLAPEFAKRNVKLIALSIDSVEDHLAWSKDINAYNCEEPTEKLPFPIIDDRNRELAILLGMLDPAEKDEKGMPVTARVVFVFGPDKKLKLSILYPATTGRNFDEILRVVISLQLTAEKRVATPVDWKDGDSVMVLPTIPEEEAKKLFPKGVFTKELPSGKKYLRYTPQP

[2] = biological target: Elongation factor 2 (Homo sapiens) (UniProt P13639); test: Binding affinity to elongation factor 2 in human DOHH-2 cells by MS analysis; type: cell-based
DOHH-2 [3] = test: Up regulation of HSP90alpha expression in human DOHH-2 cells at 8 uM measured after 4 to 24 hrs by Western blot analysis; type: functional, cell-based; conditions: time 4-24 hrs
[4] = biological target: T2, Protein disulfide-isomerase A4 (Homo sapiens) (UniProt P13667); test: Binding affinity to PDIA4 in human DOHH-2 cells measured after 6 hrs by pull-down assay; type: cell-based; conditions: DDE = dose-dependent effect
T2 sequence (whole entry): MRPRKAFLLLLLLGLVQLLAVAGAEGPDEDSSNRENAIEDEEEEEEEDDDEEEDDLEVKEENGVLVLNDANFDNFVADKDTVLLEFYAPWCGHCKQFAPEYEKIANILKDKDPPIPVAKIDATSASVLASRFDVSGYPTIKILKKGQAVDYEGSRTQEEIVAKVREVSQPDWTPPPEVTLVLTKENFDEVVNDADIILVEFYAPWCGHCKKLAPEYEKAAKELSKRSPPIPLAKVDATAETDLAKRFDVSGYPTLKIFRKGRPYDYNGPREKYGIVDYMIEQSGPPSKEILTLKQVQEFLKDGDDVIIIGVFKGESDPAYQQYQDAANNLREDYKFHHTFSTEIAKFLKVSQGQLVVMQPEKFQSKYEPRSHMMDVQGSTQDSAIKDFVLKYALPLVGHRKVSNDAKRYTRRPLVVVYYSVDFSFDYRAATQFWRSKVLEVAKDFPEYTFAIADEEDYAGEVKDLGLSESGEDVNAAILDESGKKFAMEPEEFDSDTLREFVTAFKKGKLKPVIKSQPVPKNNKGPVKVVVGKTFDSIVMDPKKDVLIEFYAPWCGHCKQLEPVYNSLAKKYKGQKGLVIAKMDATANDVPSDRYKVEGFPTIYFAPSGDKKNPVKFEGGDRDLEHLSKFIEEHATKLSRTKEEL

Homo sapiens = organism: Homo sapiens; test: Binding affinity to ADP-bound full-length human HSP70 assessed as Cys574 adduct formation at SBDalpha domain by LC-MS/MS analysis
DOHH-2 [5] = test: Up regulation of HSP90alpha expression in human DOHH-2 cells at 0.5 to 8 uM measured after 24 hrs by Western blot analysis; type: functional, cell-based; conditions: dose 0.5-8 µM
[6] = biological target: T3, Peroxiredoxin-1 (Homo sapiens) (UniProt Q06830); test: Binding affinity to PRDX1 in human DOHH-2 cells by MS analysis; type: cell-based
T3 sequence (whole entry): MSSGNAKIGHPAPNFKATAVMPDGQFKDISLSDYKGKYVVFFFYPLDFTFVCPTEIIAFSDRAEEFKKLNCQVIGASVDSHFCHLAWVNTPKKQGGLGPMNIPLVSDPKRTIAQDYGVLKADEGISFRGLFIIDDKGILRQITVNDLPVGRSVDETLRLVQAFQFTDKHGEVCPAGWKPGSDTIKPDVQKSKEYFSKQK

DOHH-2 [7] = test: Cytotoxicity against human DOHH-2 cells measured after 72 hrs; type: functional, cell-based
[8] = biological target: T4, Peroxiredoxin-2 (Homo sapiens) (UniProt P32119); test: Binding affinity to PRDX2 in human DOHH-2 cells measured after 6 hrs by pull-down assay; type: cell-based; conditions: DDE = dose-dependent effect
T4 sequence (whole entry): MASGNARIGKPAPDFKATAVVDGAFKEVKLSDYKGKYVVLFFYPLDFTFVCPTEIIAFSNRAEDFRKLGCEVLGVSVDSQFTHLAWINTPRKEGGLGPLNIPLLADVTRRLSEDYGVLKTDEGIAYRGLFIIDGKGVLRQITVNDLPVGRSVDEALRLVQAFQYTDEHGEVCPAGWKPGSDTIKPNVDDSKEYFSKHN

DOHH-2 [9] = test: Induction of apoptosis in human DOHH-2 cells assessed as increase in cleaved caspase-3 expression at 8 uM measured after 4 to 24 hrs by Western blot analysis; type: functional, cell-based; conditions: time 4-24 hrs
[10] = biological target: Glutathione S-transferase P (Homo sapiens) (UniProt P09211); test: Binding affinity to GSTP1 in human MDA-MB-453 cells measured after 6 hrs by pull-down assay; type: cell-based; conditions: dose <= 20.0 µM, DDE = dose-dependent effect
DOHH-2 [11] = test: Up regulation of HSP70 expression in human DOHH-2 cells at 0.5 to 8 uM measured after 24 hrs by Western blot analysis; type: functional, cell-based; conditions: dose 0.5-8 µM
[12] = biological target: T5, Glutathione S-transferase omega-1 (Homo sapiens) (UniProt P78417); test: Binding affinity to GSTO1 in human DOHH-2 cells by MS analysis; type: cell-based
T5 sequence (whole entry): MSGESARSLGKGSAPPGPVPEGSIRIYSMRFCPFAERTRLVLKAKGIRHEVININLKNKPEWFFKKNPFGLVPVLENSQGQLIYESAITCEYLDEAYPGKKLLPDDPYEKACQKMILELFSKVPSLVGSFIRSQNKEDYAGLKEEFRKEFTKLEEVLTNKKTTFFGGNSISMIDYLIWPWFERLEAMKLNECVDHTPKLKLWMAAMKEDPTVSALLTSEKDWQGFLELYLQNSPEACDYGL

[13] = biological target: T6, Peroxiredoxin-5, mitochondrial (Homo sapiens) (UniProt P30044); test: Binding affinity to PRDX5 in human DOHH-2 cells by MS analysis; type: cell-based
T6 sequence (whole entry): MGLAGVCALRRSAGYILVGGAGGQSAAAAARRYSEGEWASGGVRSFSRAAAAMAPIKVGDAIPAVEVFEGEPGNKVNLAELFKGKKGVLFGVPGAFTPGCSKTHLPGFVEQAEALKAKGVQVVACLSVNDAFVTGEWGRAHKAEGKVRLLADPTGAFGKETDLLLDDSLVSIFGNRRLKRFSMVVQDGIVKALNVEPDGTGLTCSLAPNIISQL

[14] = biological target: T4, Peroxiredoxin-2 (Homo sapiens); test: Binding affinity to PRDX2 in human MDA-MB-453 cells measured after 6 hrs by pull-down assay; type: cell-based; conditions: dose <= 20.0 µM, DDE = dose-dependent effect
[15] = biological target: T7, Thioredoxin-dependent peroxide reductase, mitochondrial (Homo sapiens) (UniProt P30048); test: Binding affinity to PRDX3 in human DOHH-2 cells measured after 6 hrs by pull-down assay; type: cell-based; conditions: DDE = dose-dependent effect
T7 sequence (whole entry): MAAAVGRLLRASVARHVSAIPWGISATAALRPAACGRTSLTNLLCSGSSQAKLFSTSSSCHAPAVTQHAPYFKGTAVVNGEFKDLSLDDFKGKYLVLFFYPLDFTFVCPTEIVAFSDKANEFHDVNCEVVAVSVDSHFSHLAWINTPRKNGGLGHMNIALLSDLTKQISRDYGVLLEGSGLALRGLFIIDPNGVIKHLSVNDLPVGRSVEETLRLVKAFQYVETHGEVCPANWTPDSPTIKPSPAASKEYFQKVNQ

Glutathione S-transferase P (Homo sapiens), sequence (P09211 2-210 limits assumed): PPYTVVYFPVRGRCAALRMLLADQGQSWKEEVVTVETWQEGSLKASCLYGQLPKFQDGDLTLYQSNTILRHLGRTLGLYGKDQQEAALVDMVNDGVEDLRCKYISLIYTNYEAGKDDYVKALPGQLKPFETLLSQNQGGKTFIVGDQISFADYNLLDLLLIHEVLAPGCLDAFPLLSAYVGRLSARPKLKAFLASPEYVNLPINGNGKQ

- Activity [1]: Dde
- Activity [2]: Active
- Activity [4]: Dde
- Activity (Homo sapiens): Active
- Activity [6]: Active
- Activity [8]: Dde
- Activity [10]: Dde
- Activity [12]: Active
- Activity [13]: Active
- Activity [14]: Dde
- Activity [15]: Dde
Compound: C#Cc1cccc(C#CS(N)(=O)=O)c1
- Activity (DOHH-2 [3]): Active
- Activity (DOHH-2 [5]): Active
- Activity (DOHH-2 [7]): Active
- Activity (DOHH-2 [9]): Active
- Activity (DOHH-2 [11]): Active
